Columns and labels:
[1] = target: T1, hBACE1 D289N (proteolytic inactive mutant) in HEK293T cells (Homo sapiens, UniProt P56817, D289N); assay: Staining of transfected HEK293T cells, confocal imaging: BACE1 D289N; type: cell-based
T1 construct: expressed in transfected cells; host or cells: HEK293T
Procedure: Next, we explored the performance of the new Alexa-C3 compounds in living cells. Because of the rather hydrophilic properties, we exclusively targeted the cell membrane. To prevent intracellular accumulation, we first performed stainings at 4 °C arresting ATP-dependent endocytosis. […] All of the constructs were tagged at the C-terminus with either EGFP or mCherry to visualize subcellular expression. […] With these experiments, we want to exclude that a lack of staining is caused by an impaired accessibility of the protein by Alexa-C3 compounds. […] We then tested samples with BACE1 expression after fixation of the cells with paraformaldehyde (PFA).
(D) All conjugates were also probed on cells fixed with 4% paraformaldehyde (PFA) for 15 min prior to staining. […] Scale bars represent 5 μm (A–D) and 20 μm (E). […] Samples were excited at 488, 561, and 633 nm, respectively.
HEK293T cells (ATCC accession number CRL-11268) were maintained in Dulbecco's modified Eagle's medium (Sigma-Aldrich D6046) with 1g/L glucose, supplemented with 10% FCS (Merck) and 1% penicillin/streptomycin (PAA). CHO-K1 cells (ATCC #CCL-61) were maintained in modified phenol red free RPMI-1640 medium (Sigma-Aldrich, R7509), supplemented with 2 mM L-glutamine (Sigma-Aldrich, G7513), and 10% FCS (Merck). Cells were cultured at 37 °C in a 5% CO2 atmosphere. The following plasmids were used for transfection with the amount of DNA indicated (per 35 mm Petri dish): hBACE1 (NM_012104.4), 50 ng for single molecule recordings, 200 ng otherwise; hBACE1 fused to EGFP or mCherry, 75 ng; hBACE1 D289N fused to EGFP or mCherry, 75 ng; hBACE1 D289N, 200–400 ng; hBACE2 (NM_012105.3) fused to EGFP, 75 ng; hCathepsinD (HsCD00438327), Harvard PlasmID, 75 ng. Transfection was performed 24 h after plating using jetPEI (Polyplus) according to the manufacturer’s protocol.
For labeling, we plated HEK293T cells onto sterile 18 mm 1.5H borosilicate coverslips (VWR), coated with poly-D-lysine (Sigma). […]

endogenous BACE1 = target: T2, endogenous BACE1 (Mus musculus, UniProt P56818); assay: Staining of endogenous BACE1 in brain slices; details: 250 nM probe, BACE1+/+ vs BACE1–/– mice
T2 construct: from tissue; host or cells: mouse brain cryosections (hippocampus, cerebellum), C57BL/6J background, P16
T2 sequence (P56818 46-501): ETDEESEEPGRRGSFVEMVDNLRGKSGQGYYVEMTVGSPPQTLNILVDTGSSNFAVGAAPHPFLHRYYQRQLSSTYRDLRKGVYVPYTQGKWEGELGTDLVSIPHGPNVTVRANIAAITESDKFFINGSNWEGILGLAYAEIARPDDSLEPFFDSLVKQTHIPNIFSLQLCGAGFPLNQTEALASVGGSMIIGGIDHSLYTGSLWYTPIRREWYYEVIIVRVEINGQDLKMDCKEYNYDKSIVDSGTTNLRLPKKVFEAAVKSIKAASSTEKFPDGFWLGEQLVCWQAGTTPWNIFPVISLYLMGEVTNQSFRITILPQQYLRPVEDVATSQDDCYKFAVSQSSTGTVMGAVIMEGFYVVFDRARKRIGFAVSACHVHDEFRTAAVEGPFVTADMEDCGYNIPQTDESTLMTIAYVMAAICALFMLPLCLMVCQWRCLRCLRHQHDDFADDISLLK
From the text: Areas with high expression such as the hippocampal MFB[38] or cerebellar Purkinje cells[39],[40] are readily distinguished. However, all primary anti-BACE1 antibodies tested in our lab produced a significant background in samples of BACE1 knockout mice.[20],[23] […] We wondered if our new Alexa-C3 compounds could outperform existing probes in endogenous tissue. […] Close to the hilus, we depicted the MFB additionally at higher magnification (Figure 4B). […] From this set of data and from previous experiments using anti-BACE1 antibodies and SiR-BACE1 we calculated the ratio of the signal in the hilar region to the signal in the molecular layer (Figure 4C), since the molecular layer (red box in Figure 4C) is more affected by background fluorescence due to the relatively low BACE1 expression level.
(A) Images of the hippocampus depict the mossy fiber bundle (MFB) with high BACE1 expression with the intervening CA3 pyramidal cell layer (CA3) and proximal dentate gyrus (DG). […] The scale bar represents 200 μm. […]
For quantification of hippocampal BACE1 staining, mean intensities of the mossy fiber bundle were divided by the mean intensity of the molecular layer of the dentate gyrus. Mean intensities were calculated from rectangular regions of interest. In addition, analysis was performed on images of hippocampal BACE1 labeling with SiR-BACE1 recorded previously.[31]

[2] = Fluorescence spectroscopy, sensitivity to BSA and Expi293F cells; details: mock Expi293F cells in fluorobrite vs PBS alone
Procedure: Emission and excitation spectra of all compounds were determined at a concentration of 33 nM in phosphate buffered saline (PBS) using an infinite 200pro (Tecan) with a resolution of 2 nm. […] For sensitivity assessment, we used PBS, PBS + BSA (0.05%), and Expi293F cells in fluorobrite (2 × 10^6 cells/mL).

[3] = target: recombinant human BACE1 protein (amino acids 1–457, extracellular domain) (Homo sapiens, UniProt P56817); assay: Fluorescence correlation spectroscopy (FCS) with BACE1 ECD in solution
recombinant human BACE1 protein (amino acids 1–457, extracellular domain), sequence (P56817 22-457): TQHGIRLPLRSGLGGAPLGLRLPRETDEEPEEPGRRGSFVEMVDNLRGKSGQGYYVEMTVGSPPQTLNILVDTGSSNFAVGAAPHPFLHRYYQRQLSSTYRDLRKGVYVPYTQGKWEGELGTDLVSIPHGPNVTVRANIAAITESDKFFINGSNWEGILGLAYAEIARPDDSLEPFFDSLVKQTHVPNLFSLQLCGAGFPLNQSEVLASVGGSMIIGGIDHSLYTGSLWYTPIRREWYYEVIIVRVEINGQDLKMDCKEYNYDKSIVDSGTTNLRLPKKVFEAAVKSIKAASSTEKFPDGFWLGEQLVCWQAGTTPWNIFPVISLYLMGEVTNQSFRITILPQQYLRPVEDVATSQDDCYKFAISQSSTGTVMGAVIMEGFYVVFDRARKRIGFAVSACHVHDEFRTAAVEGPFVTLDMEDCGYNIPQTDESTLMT

T1 sequence (P56817 46-501 D289N): as the sequence (P56818 46-501) above, with S6P, I162V, I165L, T180S, A182V, D244N, V340I, A393L, H443Q counted along it

staining of BACE1 D289N [1] | labeling of endogenous BACE1 in brain slices (endogenous BACE1) | increase of fluorescent output in presence of Expi293F cells [2] | EC50 [3] | diffusion time constant of the second (BACE1-bound, slow) population ([3]; 100 nM probe with BACE1 ECD, pH 5, mean ± SEM, n = 3 preparations) | Compound | additional slow diffusing component with BACE1 ECD ([3]; 100 nM probe with BACE1 ECD, pH 5)
not labeled | unsuccessful | +8% |  |  | C[C@@H](NC(=O)c1cc(C(=O)N[C@@H](Cc2ccccc2)[C@H](O)CNC2CC2)cc(N(C)S(=O)(=O)CCCNC(=O)CCCCCC2(C)C(/C=C/C=C/C=C3/N(CCCS(=O)(=O)O)c4ccc(S(=O)(=O)O)cc4C3(C)C)=[N+](CCCS(=O)(=O)[O-])c3ccc(S(=O)(=O)O)cc32)c1)c1ccccc1 (stereo partly drawn) | no additional slow component was observed
no appreciable fluorescence | labeled BACE1 in a typical pattern | +25% | 9.77 nM | 310 ± 10 μs | C[C@@H](NC(=O)c1cc(C(=O)N[C@@H](Cc2ccccc2)[C@H](O)CNC2CC2)cc(N(C)S(=O)(=O)CCCNC(=O)c2ccc(C(=O)O)c(-c3c4ccc(=N)c(S(=O)(=O)O)c-4oc4c(S(=O)(=O)O)c(N)ccc34)c2)c1)c1ccccc1 [2-(6-Amino-3-iminio-4,5-disulfo-3H-xanthen-9-yl)-4-((3-(N-(3-(((2S,3R)-4-(cyclopropylamino)-3-hydroxy-1-phenylbutan-2-yl)carbamoyl)-5-(((R)-1-phenylethyl)carbamoyl)phenyl)-N-methylsulfamoyl)propyl)carbamoyl)benzoate] | 
